Common to all, as to assay type: cell-based
The target in assay [1] is T1, human TLR9 (Homo sapiens, UniProt Q9NR96).
T1 construct: host or cells: HEK-Blue cells
T1 sequence (Q9NR96 26-1032): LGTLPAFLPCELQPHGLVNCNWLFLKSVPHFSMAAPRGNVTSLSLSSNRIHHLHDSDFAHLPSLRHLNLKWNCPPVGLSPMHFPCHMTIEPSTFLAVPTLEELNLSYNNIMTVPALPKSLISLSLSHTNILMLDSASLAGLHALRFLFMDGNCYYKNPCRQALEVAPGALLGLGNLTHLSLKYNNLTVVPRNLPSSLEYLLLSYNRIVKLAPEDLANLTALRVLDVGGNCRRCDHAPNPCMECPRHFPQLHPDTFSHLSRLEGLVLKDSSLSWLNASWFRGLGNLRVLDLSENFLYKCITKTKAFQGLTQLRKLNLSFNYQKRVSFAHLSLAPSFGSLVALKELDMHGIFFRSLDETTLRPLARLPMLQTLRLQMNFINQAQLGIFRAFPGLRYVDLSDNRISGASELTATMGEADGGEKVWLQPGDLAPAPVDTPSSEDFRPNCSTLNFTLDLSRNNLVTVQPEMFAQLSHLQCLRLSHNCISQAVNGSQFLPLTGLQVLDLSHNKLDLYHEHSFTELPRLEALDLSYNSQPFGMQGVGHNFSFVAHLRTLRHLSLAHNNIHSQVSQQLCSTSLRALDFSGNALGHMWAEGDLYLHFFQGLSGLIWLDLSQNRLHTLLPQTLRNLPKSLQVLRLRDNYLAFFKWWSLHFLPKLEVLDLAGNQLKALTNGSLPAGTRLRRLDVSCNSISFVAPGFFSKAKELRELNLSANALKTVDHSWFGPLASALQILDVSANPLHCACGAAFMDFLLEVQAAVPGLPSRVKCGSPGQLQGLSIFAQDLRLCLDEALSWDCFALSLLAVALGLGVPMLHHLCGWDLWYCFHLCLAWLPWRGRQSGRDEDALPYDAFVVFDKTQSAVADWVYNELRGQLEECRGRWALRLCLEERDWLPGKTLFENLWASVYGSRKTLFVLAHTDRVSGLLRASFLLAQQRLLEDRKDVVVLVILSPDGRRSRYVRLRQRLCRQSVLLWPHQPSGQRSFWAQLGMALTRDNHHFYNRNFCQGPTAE
Put plainly: TLR9 inhibition reporter assay (HEK-Blue SEAP reporter). The note with it: HEK-Blue cells overexpressing human TLR9; ODN2006 5 nM; 22 hour incubation. Put shortly: (§1)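 Compound treatment: 30 min, RT, 0.05 nM–50 μM final. Agonist: TLR7 gardiquimod 7.5 μM; TLR8 R848 15.9 μM; TLR9 ODN2006 5 nM. Incubation 22 h, 37 °C, 5% CO2. Readout SEAP, HEK-Blue Detection.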
In general terms: In a reporter assay the amount or activity of a reporter protein is the signal.

Assay [2] deals with T2, human TLR7 (Homo sapiens, UniProt Q9NYK1).
T2 construct: host or cells: HEK-Blue cells
T2 sequence (Q9NYK1 27-1049): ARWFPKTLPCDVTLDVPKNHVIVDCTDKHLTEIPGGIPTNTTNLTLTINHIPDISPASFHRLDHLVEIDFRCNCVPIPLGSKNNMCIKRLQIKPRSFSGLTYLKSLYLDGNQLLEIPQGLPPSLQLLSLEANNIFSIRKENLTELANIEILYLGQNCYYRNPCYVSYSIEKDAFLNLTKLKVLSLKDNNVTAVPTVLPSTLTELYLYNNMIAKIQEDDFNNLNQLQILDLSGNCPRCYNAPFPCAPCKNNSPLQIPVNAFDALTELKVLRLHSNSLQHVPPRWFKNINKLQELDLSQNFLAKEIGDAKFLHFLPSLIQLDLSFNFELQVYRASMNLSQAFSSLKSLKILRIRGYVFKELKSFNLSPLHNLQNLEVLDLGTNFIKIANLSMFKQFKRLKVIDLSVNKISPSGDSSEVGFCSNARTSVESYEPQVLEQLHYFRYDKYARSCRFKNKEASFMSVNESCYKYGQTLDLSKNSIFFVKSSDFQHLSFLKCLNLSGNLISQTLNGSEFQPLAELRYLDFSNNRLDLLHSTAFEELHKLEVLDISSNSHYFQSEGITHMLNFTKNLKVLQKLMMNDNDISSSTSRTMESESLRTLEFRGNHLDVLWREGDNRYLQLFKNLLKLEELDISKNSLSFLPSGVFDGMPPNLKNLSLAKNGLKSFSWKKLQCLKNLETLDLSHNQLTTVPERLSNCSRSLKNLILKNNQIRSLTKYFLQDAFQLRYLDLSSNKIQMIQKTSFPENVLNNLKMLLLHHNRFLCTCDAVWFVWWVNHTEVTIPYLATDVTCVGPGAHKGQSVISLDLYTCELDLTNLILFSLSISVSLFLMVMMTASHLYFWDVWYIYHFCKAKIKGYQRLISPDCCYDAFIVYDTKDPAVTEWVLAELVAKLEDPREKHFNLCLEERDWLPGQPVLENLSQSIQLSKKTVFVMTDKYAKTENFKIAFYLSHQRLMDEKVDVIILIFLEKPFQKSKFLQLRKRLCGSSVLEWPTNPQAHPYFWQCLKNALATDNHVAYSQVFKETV
Briefly: TLR7 inhibition reporter assay (HEK-Blue SEAP reporter). The conditions noted are these: HEK-Blue cells overexpressing human TLR7; gardiquimod 7.5 μM; 22 hour incubation. The gist of the method: as §1

Assay [3] deals with T3, human TLR8 (Homo sapiens, UniProt Q9NR97).
T3 construct: host or cells: HEK-Blue cells
T3 sequence (Q9NR97 27-1041): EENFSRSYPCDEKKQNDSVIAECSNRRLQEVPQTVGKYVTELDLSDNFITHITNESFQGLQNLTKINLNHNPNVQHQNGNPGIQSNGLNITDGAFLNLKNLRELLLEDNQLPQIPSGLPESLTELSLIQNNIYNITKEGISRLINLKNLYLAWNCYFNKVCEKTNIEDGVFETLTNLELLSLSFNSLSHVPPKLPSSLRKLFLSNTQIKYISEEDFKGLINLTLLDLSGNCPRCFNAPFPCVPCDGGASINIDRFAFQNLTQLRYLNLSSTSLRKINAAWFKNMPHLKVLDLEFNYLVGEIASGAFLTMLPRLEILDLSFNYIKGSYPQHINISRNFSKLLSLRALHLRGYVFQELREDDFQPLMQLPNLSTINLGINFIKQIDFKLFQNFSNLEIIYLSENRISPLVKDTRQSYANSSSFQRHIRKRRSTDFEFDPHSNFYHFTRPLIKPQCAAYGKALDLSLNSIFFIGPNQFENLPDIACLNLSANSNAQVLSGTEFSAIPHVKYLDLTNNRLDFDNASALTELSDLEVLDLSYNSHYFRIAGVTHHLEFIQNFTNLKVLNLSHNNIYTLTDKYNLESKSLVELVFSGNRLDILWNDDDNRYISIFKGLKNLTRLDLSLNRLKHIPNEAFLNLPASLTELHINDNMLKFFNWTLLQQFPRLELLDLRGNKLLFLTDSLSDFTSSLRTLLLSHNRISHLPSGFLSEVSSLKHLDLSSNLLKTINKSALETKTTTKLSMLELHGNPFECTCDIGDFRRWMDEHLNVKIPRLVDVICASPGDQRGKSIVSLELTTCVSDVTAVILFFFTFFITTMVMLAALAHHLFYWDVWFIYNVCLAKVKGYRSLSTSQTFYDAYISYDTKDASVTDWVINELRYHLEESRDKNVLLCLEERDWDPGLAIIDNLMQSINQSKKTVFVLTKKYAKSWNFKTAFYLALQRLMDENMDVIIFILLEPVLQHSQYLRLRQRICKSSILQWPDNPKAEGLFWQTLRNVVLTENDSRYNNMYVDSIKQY
Briefly: TLR8 inhibition reporter assay (HEK-Blue SEAP reporter). The conditions noted are these: HEK-Blue cells overexpressing human TLR8; R848 15.9 μM; 22 hour incubation. The gist of the method: as §1

The record followed here is patent publication US11306092B2, “Amino indole compounds useful as TLR inhibitors” (BRISTOL-MYERS SQUIBB COMPANY, priority 2017, dated 2022).

As usually defined, the IC50 is the midpoint of a concentration-inhibition curve. Consider `CC[C@@H](C)[C@@H](N)C(=O)Nc1ccc2[nH]c(-c3ccc(OC)c(OC)c3)c(C(C)C)c2c1` [Example 17, (2R,3R)-2-amino-N-(2-(3,4-dimethoxyphenyl)-3-isopropyl-1H-indol-5-yl)-3-methylpentanamide], for which the results for the IC50 in assay [1], in assay [2] and in assay [3] were 6000 nM, 299 nM and 72 nM, respectively.

In the case of `COc1ccc(-c2[nH]c3ccc(NC(=O)[C@@H](N)CCC(=O)O)cc3c2C(C)C)cc1OC` [Example 24, (S)-4-amino-5-((2-(3,4-dimethoxyphenyl)-3-isopropyl-1H-indol-5-yl)amino)-5-oxopentanoic acid], the concentration for half-maximal inhibition (IC50) in assay [1] was greater than 50000 nM; in assay [2], 1080 nM; in assay [3] it was 216 nM.

With `COc1ccc(-c2[nH]c3ccc(NC4CCC(N5CCN(c6ccncc6)CC5)CC4)cc3c2C(C)C)cc1OC` (stereo not drawn) [Example 59, 2-(3,4-dimethoxyphenyl)-3-isopropyl-N-(4-(4-(pyridin-4-yl)piperazin-1-yl)cyclohexyl)-1H-indol-5-amine], the half-maximal inhibitory concentration (IC50) amounted to 218 nM in assay [1], 196 nM in assay [2] and 106 nM in assay [3].

With `COc1ccc(-c2[nH]c3ccc(N4CCC(N)(CC#N)CC4)cc3c2C(C)C)cc1OC` [Example 109, 2-(4-amino-1-(2-(3,4-dimethoxyphenyl)-3-isopropyl-1H-indol-5-yl)piperidin-4-yl)acetonitrile], the 50% inhibitory concentration (IC50) in assay [1] was 15100 nM; in assay [2], 28 nM; in assay [3] it was 211 nM.

Turning to `Cc1c(-c2ccnc3[nH]ccc23)[nH]c2ccc(N3CCN(C4CCN(CC(C)C)CC4)CC3)cc12` [Example 158, 4-(5-(4-(1-isobutylpiperidin-4-yl)piperazin-1-yl)-3-methyl-H-indol-2-yl)-1H-pyrrolo[2,3-b]pyridine], the IC50 came out at 198 nM in assay [1], 12500 nM in assay [2] and 45400 nM in assay [3].

On to `CCc1c(-c2cc(OC)nc(OC)c2)[nH]c2ccc(N3CCNCC3)cc12` [Example 129, 2-(2,6-dimethoxypyridin-4-yl)-3-ethyl-5-(piperazin-1-yl)-1H-indole], for which the results for the half-inhibitory concentration (IC50) in assay [1], in assay [2] and in assay [3] were 3320 nM, 75 nM and 22 nM, respectively.

Turning to `COc1ccc(-c2[nH]c3ccc(N4CCC(N(C)CCCN(C)C)CC4)cc3c2C(C)C)cc1OC` [Example 81, N1-(1-(2-(3,4-dimethoxyphenyl)-3-isopropyl-1H-indol-5-yl)piperidin-4-yl)-N1,N3,N3-trimethylpropane-1,3-diamine], the IC50 turned out to be 1050 nM in assay [1], 44 nM in assay [2] and 10 nM in assay [3].

For `CCc1c(-c2ccnc(OC)c2)[nH]c2ccc(N3CCN(C4CCN(CC(C)C)CC4)CC3)cc12` [Example 160, 3-ethyl-5-(4-(1-isobutylpiperidin-4-yl)piperazin-1-yl)-2-(2-methoxypyridin-4-yl)-1H-indole], the IC50 in assay [1] is 470 nM; in assay [2], 106 nM; in assay [3] it was 14 nM.

Regarding `CCc1c(-c2ccc(OC)c(OC)c2)[nH]c2ccc(N3CCN(C4CCN(CC)CC4)CC3)cc12` [Example 163, 2-(3,4-dimethoxyphenyl)-3-ethyl-5-(4-(1-ethylpiperidin-4-yl)piperazin-1-yl)-1H-indole], the IC50 stood at 709 nM in assay [1], 68 nM in assay [2] and 9.3 nM in assay [3].

On to `COc1ccc(-c2[nH]c3ccc(N4CCC(=O)N(CCN(C)C)CC4)cc3c2C(C)C)cc1OC` [Example 107, 1-(2-(3,4-dimethoxyphenyl)-3-isopropyl-1H-indol-5-yl)-4-(2-(dimethylamino)ethyl)-1,4-diazepan-5-one], for which the values for the half-maximal inhibitory concentration (IC50) in assay [1], in assay [2] and in assay [3] were 3460 nM, 31 nM and 55 nM, respectively.

Turning to `CCc1c(-c2ccc(OC)c(OC)c2)[nH]c2ccc(N3CCC(OC4CCN(C)CC4)CC3)cc12` [Example 134, 2-(3,4-dimethoxyphenyl)-3-ethyl-5-(4-((1-methylpiperidin-4-yl)oxy)piperidin-1-yl)-1H-indole], the figures for the half-maximal inhibitory concentration (IC50) in assay [1], in assay [2] and in assay [3] were 462 nM, 54 nM and 94 nM, respectively.

Regarding `COc1ccc(-c2[nH]c3ccc(NC(=O)[C@@H](N)CCCCN)cc3c2C(C)C)cc1OC` [Example 23, (S)-2,6-diamino-N-(2-(3,4-dimethoxyphenyl)-3-isopropyl-1H-indol-5-yl)hexanamide], the IC50 in assay [1] was greater than 50000 nM; in assay [2], 969 nM; in assay [3], 433 nM.

On to `COc1ccc(-c2[nH]c3ccc(NC4CCC(N5CCN(C6CCN(C)CC6)CC5)CC4)cc3c2C(C)C)cc1OC` (stereo not drawn) [Example 62, 2-(3,4-dimethoxyphenyl)-3-isopropyl-N-(4-(4-(1-methylpiperidin-4-yl)piperazin-1-yl)cyclohexyl)-1H-indol-5-amine], for which the half-inhibitory concentration (IC50) in assay [1] came out at 323 nM; in assay [2], 211 nM; in assay [3] it was 212 nM.
